# Reference: the supplement of paper PMC8612539
# Tested on: Escherichia coli
# Experiment: minimum inhibitory concentration (MIC)
# Method: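 Broth microdilution MIC (Sensititre BOPO7F bovine plate, CLSI methods) of 19 antimicrobials against field isolates of P. multocida, M. haemolytica, H. somni (deep nasopharyngeal swabs) and E. coli, Enterococcus spp. (rectal swabs) from weaned dairy heifers. Incubation 16-24 h at 35 C. MIC is the lowest concentration preventing visible growth. Values with <= or > lie at the tested range limits. Trimethoprim-sulfamethoxazole is given as the trimethoprim component of a 1:19 mixture.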
structure (smiles),measurement,setting,value
CCCN1C[C@H](C)[C@@H](O)[C@](C)(O)[C@@H](CC)OC(=O)[C@H](C)[C@@H](O[C@H]2C[C@@](C)(OC)[C@@H](O)[C@H](C)O2)[C@H](C)[C@@H](O[C@@H]2O[C@H](C)C[C@H](N(C)C)[C@H]2O)[C@](C)(O)C[C@H]1C [Gamithromycin],minimum inhibitory concentration,isolate (source animal id): 8,8 µg/mL
same,minimum inhibitory concentration,isolate (source animal id): 9,> 8 µg/mL
same,minimum inhibitory concentration,isolate (source animal id): 10,8 µg/mL
same,minimum inhibitory concentration,isolate (source animal id): 11,8 µg/mL
same,minimum inhibitory concentration,isolate (source animal id): 12,8 µg/mL
same,minimum inhibitory concentration,isolate (source animal id): 13,8 µg/mL
same,minimum inhibitory concentration,isolate (source animal id): 14,> 8 µg/mL
same,minimum inhibitory concentration,isolate (source animal id): 15,4 µg/mL
same,minimum inhibitory concentration,isolate (source animal id): 16,8 µg/mL
same,minimum inhibitory concentration,isolate (source animal id): 98,8 µg/mL
same,minimum inhibitory concentration,isolate (source animal id): 99,8 µg/mL
same,minimum inhibitory concentration,isolate (source animal id): 100,4 µg/mL
same,minimum inhibitory concentration,isolate (source animal id): 101,8 µg/mL
same,minimum inhibitory concentration,isolate (source animal id): 102,8 µg/mL
same,minimum inhibitory concentration,isolate (source animal id): 103,8 µg/mL
same,minimum inhibitory concentration,isolate (source animal id): 104,8 µg/mL
same,minimum inhibitory concentration,isolate (source animal id): 105,8 µg/mL
same,minimum inhibitory concentration,isolate (source animal id): 106,> 8 µg/mL
same,minimum inhibitory concentration,isolate (source animal id): 107,8 µg/mL
same,minimum inhibitory concentration,isolate (source animal id): 108,8 µg/mL
same,minimum inhibitory concentration,isolate (source animal id): 109,8 µg/mL
same,minimum inhibitory concentration,isolate (source animal id): 110,4 µg/mL
same,minimum inhibitory concentration,isolate (source animal id): 111,4 µg/mL
same,minimum inhibitory concentration,isolate (source animal id): 112,8 µg/mL
same,minimum inhibitory concentration,isolate (source animal id): 113,4 µg/mL
same,minimum inhibitory concentration,isolate (source animal id): 114,8 µg/mL
same,minimum inhibitory concentration,isolate (source animal id): 115,> 8 µg/mL
same,minimum inhibitory concentration,isolate (source animal id): 116,4 µg/mL
same,minimum inhibitory concentration,isolate (source animal id): 117,> 8 µg/mL
same,minimum inhibitory concentration,isolate (source animal id): 118,8 µg/mL
same,minimum inhibitory concentration,isolate (source animal id): 119,> 8 µg/mL
same,minimum inhibitory concentration,isolate (source animal id): 120,> 8 µg/mL
same,minimum inhibitory concentration,isolate (source animal id): 121,8 µg/mL
same,minimum inhibitory concentration,isolate (source animal id): 122,8 µg/mL
same,minimum inhibitory concentration,isolate (source animal id): 123,8 µg/mL
same,minimum inhibitory concentration,isolate (source animal id): 124,> 8 µg/mL
same,minimum inhibitory concentration,isolate (source animal id): 125,≤ 1 µg/mL
same,minimum inhibitory concentration,isolate (source animal id): 126,> 8 µg/mL
same,minimum inhibitory concentration,isolate (source animal id): 127,8 µg/mL
same,minimum inhibitory concentration,isolate (source animal id): 128,4 µg/mL
same,minimum inhibitory concentration,isolate (source animal id): 129,4 µg/mL
same,minimum inhibitory concentration,isolate (source animal id): 130,4 µg/mL
same,minimum inhibitory concentration,isolate (source animal id): 131,4 µg/mL
same,minimum inhibitory concentration,isolate (source animal id): 132,8 µg/mL
same,minimum inhibitory concentration,isolate (source animal id): 133,8 µg/mL
same,minimum inhibitory concentration,isolate (source animal id): 134,8 µg/mL
same,minimum inhibitory concentration,isolate (source animal id): 135,8 µg/mL
same,minimum inhibitory concentration,isolate (source animal id): 136,8 µg/mL
same,minimum inhibitory concentration,isolate (source animal id): 137,8 µg/mL
same,minimum inhibitory concentration,isolate (source animal id): 138,> 8 µg/mL
same,minimum inhibitory concentration,isolate (source animal id): 139,> 8 µg/mL
same,minimum inhibitory concentration,isolate (source animal id): 140,8 µg/mL
same,minimum inhibitory concentration,isolate (source animal id): 141,> 8 µg/mL
same,minimum inhibitory concentration,isolate (source animal id): 142,8 µg/mL
same,minimum inhibitory concentration,isolate (source animal id): 143,> 8 µg/mL
same,minimum inhibitory concentration,isolate (source animal id): 144,> 8 µg/mL
same,minimum inhibitory concentration,isolate (source animal id): 145,> 8 µg/mL
same,minimum inhibitory concentration,isolate (source animal id): 146,8 µg/mL
same,minimum inhibitory concentration,isolate (source animal id): 147,> 8 µg/mL
same,minimum inhibitory concentration,isolate (source animal id): 148,8 µg/mL
same,minimum inhibitory concentration,isolate (source animal id): 149,8 µg/mL
same,minimum inhibitory concentration,isolate (source animal id): 150,> 8 µg/mL
same,minimum inhibitory concentration,isolate (source animal id): 151,8 µg/mL
same,minimum inhibitory concentration,isolate (source animal id): 152,4 µg/mL
same,minimum inhibitory concentration,isolate (source animal id): 153,8 µg/mL
same,minimum inhibitory concentration,isolate (source animal id): 154,8 µg/mL
same,minimum inhibitory concentration,isolate (source animal id): 155,4 µg/mL
same,minimum inhibitory concentration,isolate (source animal id): 156,> 8 µg/mL
same,minimum inhibitory concentration,isolate (source animal id): 157,8 µg/mL
same,minimum inhibitory concentration,isolate (source animal id): 158,8 µg/mL
same,minimum inhibitory concentration,isolate (source animal id): 159,4 µg/mL
same,minimum inhibitory concentration,isolate (source animal id): 160,> 8 µg/mL
same,minimum inhibitory concentration,isolate (source animal id): 161,> 8 µg/mL
same,minimum inhibitory concentration,isolate (source animal id): 162,8 µg/mL
same,minimum inhibitory concentration,isolate (source animal id): 163,8 µg/mL
same,minimum inhibitory concentration,isolate (source animal id): 164,8 µg/mL
same,minimum inhibitory concentration,isolate (source animal id): 165,8 µg/mL
same,minimum inhibitory concentration,isolate (source animal id): 166,4 µg/mL
same,minimum inhibitory concentration,isolate (source animal id): 167,8 µg/mL
same,minimum inhibitory concentration,isolate (source animal id): 168,8 µg/mL
same,minimum inhibitory concentration,isolate (source animal id): 169,8 µg/mL
same,minimum inhibitory concentration,isolate (source animal id): 170,8 µg/mL
same,minimum inhibitory concentration,isolate (source animal id): 171,8 µg/mL
same,minimum inhibitory concentration,isolate (source animal id): 172,8 µg/mL
same,minimum inhibitory concentration,isolate (source animal id): 173,4 µg/mL
same,minimum inhibitory concentration,isolate (source animal id): 174,8 µg/mL
same,minimum inhibitory concentration,isolate (source animal id): 175,8 µg/mL
same,minimum inhibitory concentration,isolate (source animal id): 176,8 µg/mL
same,minimum inhibitory concentration,isolate (source animal id): 177,8 µg/mL
same,minimum inhibitory concentration,isolate (source animal id): 178,8 µg/mL
same,minimum inhibitory concentration,isolate (source animal id): 179,8 µg/mL
same,minimum inhibitory concentration,isolate (source animal id): 180,8 µg/mL
same,minimum inhibitory concentration,isolate (source animal id): 181,> 8 µg/mL
same,minimum inhibitory concentration,isolate (source animal id): 182,8 µg/mL
same,minimum inhibitory concentration,isolate (source animal id): 183,8 µg/mL
same,minimum inhibitory concentration,isolate (source animal id): 184,8 µg/mL
same,minimum inhibitory concentration,isolate (source animal id): 185,8 µg/mL
same,minimum inhibitory concentration,isolate (source animal id): 186,8 µg/mL
same,minimum inhibitory concentration,isolate (source animal id): 187,4 µg/mL
same,minimum inhibitory concentration,isolate (source animal id): 188,2 µg/mL
